Test results from patent US20160101109A1, “METHOD OF TREATING ARTHRITIS” (AbbVie Inc., priority 2007, published 2016).
Entries after “also recorded” stand apart in the source; their conditions may differ.

Tests used:
activated B lymphocytes = assay: lipopolysaccharide stimulation, mouse lymphocyte in vitro activation; assay type: cell-based
activated T lymphocytes = assay: mixed-lymphocyte reaction (MLR), mouse lymphocyte in vitro activation; assay type: cell-based
[1] = system: DBA/1J (H-2q) mice immunized with collagen; assay: mouse model of arthritis (collagen immunization, zymosan boost); assay type: in vivo; conditions: EXAMPLE A 50 mg/kg per day, dexamethasone 1 mg/kg per day, 3 weeks, p<0.5 versus vehicle control
Method: Also, a standard mouse model of arthritis using DBA/1J (H-2q) mice immunized with collagen and boosted with zymosan 21 days later was used to induce disease. The mice were than treated with EXAMPLE A (50 mg/kg per day), vehicle (with no drug) and dexamethasone (1 mg/kg per day) at the first clinical sign of disease. The mice were then evaluated for mean arthritic score (MAS) and paw swelling for 3 weeks after treatment began.

mouse ankles = assay: total bone volume by microcomputed tomography (μCT) of mouse ankles; assay type: in vivo; conditions: 1.8-mm section of ankle, resolution 18 μm, FIG. 3
Method: Still also, total bone volumes were measured by microcomputed tomography (μCT) for a 1.8-mm tall section of mouse ankles from the base of the tibia to the tarsal/metatarsal joints at a resolution of 18 μm.

[2] = system: KLH antigen-specific T cells; assay: KLH immunization of mice, ex vivo restimulation of T cells; assay type: in vivo, mouse
Excerpt: Mice were immunized with keyhole limpet hemocyanin (KLH) and treated with EXAMPLE A or vehicle control.

CN(C)CC[C@H](CSc1ccccc1)Nc1ccc(S(=O)(=O)NC(=O)c2ccc(N3CCN(Cc4ccccc4-c4ccc(Cl)cc4)CC3)cc2)cc1[N+](=O)[O-] [EXAMPLE A, N-(4-(4-((4′-chloro(1,1′-biphenyl)-2-yl)methyl)piperazin-1-yl)benzoyl)-4-(((1R)-3-(dimethylamino)-1-((phenylsulfanyl)methyl)propyl)amino)-3-nitrobenzenesulfonamide]
proliferation of activated B lymphocytes upon lipopolysaccharide stimulation (activated B lymphocytes): inhibited in a concentration-dependent manner
proliferation of activated T lymphocytes in a mixed-lymphocyte reaction (MLR) (activated T lymphocytes): inhibited in a concentration-dependent manner
paw swelling ([1]; FIG. 1): inhibition of arthritis; also recorded: reduction in mouse paw swelling
arthritis as assessed by MAS (mean arthritic score) ([1]; FIG. 2): inhibition of arthritis
mouse bone volume (mouse ankles): increase in mouse bone volume
responsiveness of T cells spared after treatment ([2]; concavalin A stimulation): responsive to concavalin A
proliferation of KLH antigen-specific T cells on restimulation ex vivo ([2]; mice immunized with KLH and treated, versus vehicle control): significant inhibition of proliferation
